In ChEMBL document CHEMBL3886577, “N-((6-amino-pyridin-3-yl)methyl)-heteroaryl-carboxamides” (2016):

test system: not listed separately; assay: (§1) In-vitro Plasma Kallikrein Inhibition: Enzymatic reactions were conducted in ⿿assay buffer⿿, comprising 50 mM Hepes/NaOH at pH 7.8, 150 mM NaCl, 1 mM EDTA and 0.05% (w/v) CHAPS. For the determination of IC50 values, the assays were performed at room temperature in 384-well plates with a total assay volume of 25.25 ul per well. The test compound was dissolved in 90% (v/v) DMSO/water. For the assays, 250 nL of the 90% (v/v) DMSO/water solution or compound solution were added per well, followed by the addition of 12.5 ul protease solution (protease in assay buffer). The final assay concentration of the human plasma kallikrein was nominally 25 pM, the 11 compound concentrations in the dilution series were in the range form 1 nM to 100 uM. After 1 hour of pre-incubation at room temperature, the reactions were started by the addition of 12.5 ul substrate solution (in assay buffer, final assay concentration was 0.5 uM). After the addition of the substrate solution, the final DMSO concentration in the assay was 0.9% (v/v).

IC50	SMILES
24 nM	Cc1nc(N)cc(OCC(=O)C(C)(C)C)c1CNC(=O)c1cn(Cc2ccccc2)nn1

target: Plasma kallikrein (Homo sapiens, UniProt P03952); assay: as §1; type: cell-free
Sequence (P03952 20-390 limits assumed): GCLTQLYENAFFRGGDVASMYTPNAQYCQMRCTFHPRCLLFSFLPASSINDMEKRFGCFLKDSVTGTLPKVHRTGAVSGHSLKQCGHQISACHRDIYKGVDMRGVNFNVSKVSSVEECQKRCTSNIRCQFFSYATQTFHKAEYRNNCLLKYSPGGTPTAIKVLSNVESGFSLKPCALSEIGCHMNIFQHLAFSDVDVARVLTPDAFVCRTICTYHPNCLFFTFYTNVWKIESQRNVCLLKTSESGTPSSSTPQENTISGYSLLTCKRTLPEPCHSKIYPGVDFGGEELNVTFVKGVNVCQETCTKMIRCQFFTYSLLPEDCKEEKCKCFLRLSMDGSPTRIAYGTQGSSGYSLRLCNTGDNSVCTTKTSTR
Sequence (P03952 391-638 limits assumed): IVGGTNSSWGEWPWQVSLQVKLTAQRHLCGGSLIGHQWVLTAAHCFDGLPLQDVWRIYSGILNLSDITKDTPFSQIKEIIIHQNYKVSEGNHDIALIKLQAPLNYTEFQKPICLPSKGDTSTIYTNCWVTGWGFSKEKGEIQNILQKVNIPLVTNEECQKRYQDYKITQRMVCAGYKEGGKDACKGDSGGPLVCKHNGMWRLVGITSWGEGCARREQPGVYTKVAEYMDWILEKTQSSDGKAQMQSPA

SMILES	IC50
COc1ccc2cc(Cn3cc(C(=O)NCc4c(C)cc(N)nc4C)cn3)ccc2c1	5 nM
Cc1cc(N)nc(C)c1CNC(=O)c1nc(Cc2ccccc2)n(C)n1	7670 nM
Cc1cc(N)nc(C)c1CNC(=O)c1nnn(Cc2ccccc2)c1C	52100 nM
Cc1cc(N)nc(C)c1CNC(=O)c1cc(C)n(Cc2ccco2)c1C	739 nM
COc1cc(Cn2cc(C(=O)NCc3c(C)cc(N)nc3C)cn2)ccc1Cn1cccn1	0.0912 nM
Cc1cc(N)nc(C)c1CNC(=O)c1cnn(Cc2ccc(CO)cc2)c1	150 nM
CNC(=O)COc1cc(N)nc(C)c1CNC(=O)c1cnn(Cc2ccccc2)c1	70 nM
Cc1cc(N)nc(C)c1CNC(=O)c1cn(Cc2ccc(-c3ccccc3)cc2)nn1	30 nM
